From patent publication US4186202A, “Phenyl-pyridylamine derivatives” (priority 1974, dated 1980)
Structures can show the parent of a compound that is named as a salt.

Columns and labels:
[1] = in vivo; cited from earlier work
[2] = tested on: uptake of 14C-5-hydroxytryptamine; test: Inhibition of uptake of 14C-5-HT in mouse midbrain slices after in vivo (i.p.) administration; conditions: i.p. half an hour before killing, dose producing 50 percent decrease of active uptake; for ED50: Mus musculus, ip, 0.5 h
Procedure: (§1) It is not possible by experimental means to induce depressions in laboratory animals. In order to evaluate a possible anti-depressive effect of new substances biochemical-pharmacological test methods must be resorted to. One such method, which seems to give a good indication of the potential anti-depressive effects of the test substances, is described in Europ.
(§2) The test substances were administered intraperitoneally half an hour before the animals were killed. […] The incubation time was 5 minutes with 5 minutes of preincubation before the labelled amines were added. The slices were dissolved in Soluene® and the amounts of radio-active amines taken up were determined by liquid scintillation. […] Active uptake is defined as that part of the radioactive uptake which is inhibited by a high concentration of cocaine.

[3] = tested on: uptake of 14C-5-hydroxytryptamine; test: Inhibition of uptake of 14C-5-HT in mouse midbrain slices, in vitro; type: biochemical; conditions: 5 minutes preincubation, 5 minutes incubation
Procedure: as §1, §2
In the in vitro method, slices of mouse midbrain were preincubated for 5 minutes with a solution of the compound to be tested and then incubated as described above.

[4] = tested on: uptake of 3H-noradrenaline; test: Inhibition of uptake of 3H-noradrenaline in mouse midbrain slices after in vivo (i.p.) administration; conditions: ip, at the dose 101 μmole/kg i.p., read-out: inhibition recorded (uptake of 3H-NA, in vivo)
Procedure: as §2, with “It is not possible by experimental means to induce depressions in laboratory animals. In order to evaluate a possible anti-depressive effect of new substances biochemical-pharmacological test methods must be resorted to. One such method, which seems to give a good indication of the potential anti-depressive effects of the test substances, is described in Europ. […] The test” for “The test”

EC50 [3] | SMILES | antidepressive effect [1] | ED50 [2] | Uptake of 14C-5-HT, in vivo ED50 ([2]; 30 min) | inhibition at 101 µmol/kg [4]
 | CN(C)CC=C(c1ccccc1)c1ccccc1 | have an antidepressive effect |  |  | 
0.5 µM | CNC/C=C(/c1ccc(Br)cc1)c1cccnc1 [H, Z, oxalate, 3-(4-bromophenyl)-N-methyl-3-(3-pyridyl)-allylamine] |  | 18 µmol/kg |  | 
0.5 µM | CNCC=C(c1ccc(Br)cc1)c1cccnc1 [H, mixture, oxalate, 3-(4-bromophenyl)-N-methyl-3-(3-pyridyl)-allylamine] |  | 32 µmol/kg |  | 
 | CNC/C=C(/c1ccc(Br)cc1)c1cccnc1 [H, Z, hydrochloride, 3-(4-bromophenyl)-N-methyl-3-(3-pyridyl)-allylamine] |  |  | 15.2 μmole/kg i.p. | 38%
